These results are taken from patent EP3409278B1, “HETEROCYCLIC PROTEIN KINASE INHIBITORS” (Tolero Pharmaceuticals, Inc., priority 2011, dated 2013).

One assay relates to MV-4-11. In words: In vitro viability assay, MV-4-11. It counts as cell-based. On the procedure: (§1) Adherent or suspension cancer cell lines were seeded at 2000-5000 cells/well in a 96-well plate, or 1000-2000 cells/well in a 384-well plate. Suspension cells were treated with drug the same day as seeding, while adherent cells were incubated overnight at 37°Cin 5% CO2 prior to drug treatment. All cells were treated for 72 hours, then lysed with ATPlite (Perkin Elmer) and measured on an Envision microplate reader. IC50 values were determined using GraphPad Prism software.
(§2) Over 35 cell lines were tested, and the most sensitive cell lines from various indications were selected and verified by multiple EC50 determinations (Figure 6). […] Antiproliferative activity using PIM-2 shRNA against FLT3-ITD driven leukemia lines has been observed (Adam (2006) Cancer Res 66:3828-35 data not shown).

In a further assay the test system is MOLM-13. The assay can be described thus: In vitro viability assay, MOLM-13. Type of assay: cell-based. On the procedure: as §1, §2
The target of the next assay is Pim-1 kinase (Homo sapiens, UniProt P11309). The assay can be described thus: Pim-1 kinase inhibition assay (Promega Kinase-Glo). It counts as biochemical. An excerpt: One illustrative manner in which Pim-1 kinase activity can be determined is by quantifying the amount of ATP remaining in solution after an in vitro Pim-1 kinase reaction. The Kinase-Glo Assay Kit (Promega, Inc., Madison, WI) allows this. The amount of ATP remaining in the solution after the kinase reaction serves as a substrate for the luciferase to catalyze luciferin to oxyluciferin plus one photon of light. Thus, the luminescent signal read by the Luminoskan Ascent Instrument (Thermo Electron Corp., Milford, MA) correlates with the amount of ATP present after the kinase reaction and inversely correlates with the amount of kinase acitivity. […] These assays are set up in duplicate 50ul volumes in white, flat bottom 96 well plates. […] This solution is incubated at 30 degrees Celsius at 360rpm for two hours. Following the incubation, 50ul of Kinase-Glo reagent is added to each well, including all positive and negative control wells, and incubated at room temperature for 15 minutes. […] The IC50 values can then be calculated for each inhibitor tested.
For orientation: Kinase-Glo reads ATP consumption through a luciferase reaction.

The next assay has as its target hERG (Homo sapiens, UniProt Q12809). The assay can be described thus: hERG Fast Patch assay (WuXiApptec). In general terms: hERG is a cardiac potassium channel; its block is linked to QT prolongation.
[1] abbreviates: Table IV, Kinase-Glo, 10uM ATP, read-out: IC50 on Pim1.
Setting [2] is: Table V, Kinase-Glo, 10uM ATP, read-out: IC50 on Pim1.

Molecules are shown by their SMILES. Where two headings read alike, the source gives them in different places.

Pim-1 kinase, sequence (P11309 whole entry): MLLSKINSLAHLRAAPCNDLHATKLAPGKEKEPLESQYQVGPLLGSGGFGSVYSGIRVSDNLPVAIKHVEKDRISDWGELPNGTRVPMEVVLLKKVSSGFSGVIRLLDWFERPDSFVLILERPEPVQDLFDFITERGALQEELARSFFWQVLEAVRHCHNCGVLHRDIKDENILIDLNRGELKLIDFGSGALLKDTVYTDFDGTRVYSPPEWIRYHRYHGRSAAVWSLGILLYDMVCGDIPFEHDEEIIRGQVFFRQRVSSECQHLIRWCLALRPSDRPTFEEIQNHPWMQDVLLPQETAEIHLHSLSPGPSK
hERG, sequence (Q12809 whole entry): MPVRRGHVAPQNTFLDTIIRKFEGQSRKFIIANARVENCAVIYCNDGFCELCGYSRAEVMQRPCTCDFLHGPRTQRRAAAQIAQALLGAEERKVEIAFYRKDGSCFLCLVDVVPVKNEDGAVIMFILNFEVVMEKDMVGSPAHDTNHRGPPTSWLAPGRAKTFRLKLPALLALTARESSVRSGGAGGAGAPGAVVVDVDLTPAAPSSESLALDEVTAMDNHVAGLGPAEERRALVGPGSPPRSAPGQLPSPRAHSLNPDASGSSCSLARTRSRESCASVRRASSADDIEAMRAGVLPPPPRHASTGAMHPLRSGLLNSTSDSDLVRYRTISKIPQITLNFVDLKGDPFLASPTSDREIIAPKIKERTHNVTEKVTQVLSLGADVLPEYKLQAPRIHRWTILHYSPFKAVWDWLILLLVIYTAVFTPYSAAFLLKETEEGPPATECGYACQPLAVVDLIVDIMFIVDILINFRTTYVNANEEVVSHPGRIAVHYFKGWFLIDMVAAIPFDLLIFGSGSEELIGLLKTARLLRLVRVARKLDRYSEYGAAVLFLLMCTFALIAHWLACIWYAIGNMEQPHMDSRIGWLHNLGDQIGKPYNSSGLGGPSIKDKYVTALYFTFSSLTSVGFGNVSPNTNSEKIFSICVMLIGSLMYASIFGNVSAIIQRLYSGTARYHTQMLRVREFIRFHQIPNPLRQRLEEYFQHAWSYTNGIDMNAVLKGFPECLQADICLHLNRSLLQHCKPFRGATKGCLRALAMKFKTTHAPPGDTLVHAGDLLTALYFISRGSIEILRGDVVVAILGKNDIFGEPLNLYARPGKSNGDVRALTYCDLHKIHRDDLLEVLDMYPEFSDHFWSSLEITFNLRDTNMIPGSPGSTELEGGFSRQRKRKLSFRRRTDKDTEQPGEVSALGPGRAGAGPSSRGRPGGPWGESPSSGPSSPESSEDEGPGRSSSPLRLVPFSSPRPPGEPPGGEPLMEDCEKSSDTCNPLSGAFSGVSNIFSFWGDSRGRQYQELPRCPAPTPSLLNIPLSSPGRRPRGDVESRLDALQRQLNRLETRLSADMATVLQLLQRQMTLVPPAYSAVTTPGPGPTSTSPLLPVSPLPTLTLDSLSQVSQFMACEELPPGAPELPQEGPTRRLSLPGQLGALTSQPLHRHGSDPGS

Take `CC(C)(O)[C@H]1CC[C@H](Nc2ccc3ncc(-c4cccc(C(F)(F)F)c4)n3n2)CC1` [SGI-9481]: the “sensitivity in viability assay” value with MV-4-11 and in the assay on MOLM-13 was “particularly sensitive” in each case.

As for `O=S1(=O)CCC(CNc2ccc3ncc(-c4cccc(OC(F)(F)F)c4)n3n2)CC1` [8-13, 4-(((3-(3-(Trifluoromethoxy)phenyl)imidazo[1,2-b]pyridazin-6-yl)amino)methyl)tetrahydro-2H-thiopyran 1,1-dioxide], the values for the IC50 at Pim-1 kinase (setting [1]) and against hERG were 0.058 µM and 10 µM, respectively. As for `O=S1(=O)CCC(CNc2ccc3nnc(-c4cccc(OC(F)(F)F)c4)n3c2)CC1` [8-103, 4-(((3-(3-(Trifluoromethoxy)phenyl)-[1,2,4]triazolo[4,3-a]pyridin-6-y/)amino)methyl)tetrahydro-2H-thiopyran 1,1-dioxide], the IC50 on Pim-1 kinase (setting [2]) worked out at 3.8 µM. In the case of `FC(F)(F)Oc1cccc(-c2cnn3ccc(NC4CCOCC4)nc23)c1` [8-50, N-(Tetrahydro-2H-pyran-4-yl)-3-(3-(trifluoromethoxy)phenyl)pyrazolo[1,5-a]pyrimidin-5-amine], the IC50 at Pim-1 kinase (setting [1]) was found to be 0.633 µM. Regarding `CO[C@H]1CC[C@H](Nc2ccn3ncc(-c4cccc(Cl)c4)c3n2)CC1` [8-64, 3-((3-Chlorophenyl)-N-4-methoxy-trans-cyclohexyl)pyrazolo[1,5-a]pyrimidin-5-amine], the IC50 at Pim-1 kinase (setting [1]) is 0.068 µM; against hERG, above 30 µM. As to `ON=C1CCC(Nc2ccc3ncc(-c4cccc(Cl)c4)n3n2)CC1` (stereo not drawn) [8-92, 4-((3-(3-chlorophenyl)imidazo[1,2-b]pyridazin-6-yl)amino)cyclohexanone oxime], at Pim-1 kinase (setting [1]), the IC50 turned out to be 0.038 µM. Take `N[C@H]1CC[C@H](Nc2ccc3ncc(-c4cccc(Cl)c4)n3n2)CC1` [8-68, N1-(3-(3-Chlorophenyl)imidazo[1,2-b]pyridazin-6-yl)cyclohexane-1,4-trans-diamine]: the IC50 on Pim-1 kinase (setting [1]) was determined as 0.004 µM. For `FC(F)(F)Oc1cccc(-c2cnc3ccc(OCC4CCOCC4)nn23)c1` [8-28, 6-((Tetrahydro-2H-pyran-4-yl)methoxy)-3-(3-(trifluoromethoxy)phenyl)imidazo[1,2-b]pyridazine], at Pim-1 kinase (setting [1]), the IC50 was 0.553 µM.

With `CC(C)(O)C(=O)N1CCC(CNc2ccc3ncc(-c4cccc(OC(F)(F)F)c4)n3n2)CC1` [8-20, 2-Hydroxy-2-methyl-1-(4-(((3-(3-(trifluoromethoxy)phenyl)imidazo[1,2-b]pyridazin-6-yl)amino)methyl)piperidin-1-yl)propan-1-one], the IC50 at Pim-1 kinase (setting [1]) came to 0.016 µM.

In the case of `CO[C@H]1CC[C@H](Nc2ccn3ncc(-c4cccc(C(F)(F)F)c4)c3n2)CC1` [8-57, 4-(trans-Methoxycyclohexyl)-3-(3-(trifluoromethyl)phenyl)pyrazolo[1,5-a]pyrimidin-5-amine], the IC50 on Pim-1 kinase (setting [1]) came to 0.066 µM. With `N[C@H]1CCCN(c2ccn3ncc(-c4cccc(Cl)c4)c3n2)C1` [8-96, (S)-1-(3-(3-chlorophenyl)pyrazolo[1,5-a]pyrimidin-5-yl)piperidin-3-amine], the IC50 at Pim-1 kinase (setting [1]) came to 0.094 µM. Consider `CO[C@H]1CC[C@H](Nc2ccc3ncc(-c4cccc(Cl)c4)n3n2)CC1` [8-38, 3-(3-Chlorophenyl)-N-(4-trans-methoxycyclohexyl)imidazo[1,2-b]pyridazin-6-amine], for which the IC50 on Pim-1 kinase (setting [1]) amounted to 0.018 µM. On to `FC(F)(F)Oc1cccc(-c2cnc3ccc(NCC4CCOCC4)nn23)c1` [8-19, N-((tetrahydro-2H-pyran-4-yl)methyl)-3-(3-(trifluoromethoxy)phenyl)imidazo[1,2-b]pyridazin-6-amine], for which, on Pim-1 kinase (setting [1]), the IC50 was found to be 0.013 µM. `FC(F)(F)c1cccc(-c2nnc3ccc(NC4CCOCC4)cn23)c1` [8-110, N-(Tetrahydro-2H-pyran-4-y/)-3-(3-(trifluoromethy/)pheny/)-[1,2,4]triazolo[4,3-a]pyridin-6-amine]: the IC50 on Pim-1 kinase (setting [2]) is 3.17 µM. In the case of `CC(C)(O)[C@H]1CC[C@H](Nc2ccc3ncc(-c4cccc(OC(F)(F)F)c4)n3n2)CC1` [8-10], the IC50 on Pim-1 kinase (setting [1]) is 0.009 µM; on hERG it was above 30 µM. On to `C[C@]1(O)CC[C@H](Nc2ccn3ncc(-c4cccc(OC(F)(F)F)c4)c3n2)CC1` [8-48, 1-Methyl-4-((3-(3-(trifluoromethoxy)phenyl)pyrazolo[1,5-a]pyrimidin-5-yl)amino)-trans-cvclohexanol], for which the IC50 on Pim-1 kinase (setting [1]) was found to be 0.197 µM.

With `CN(C)CC(=O)N1CCC(CNc2ccc3ncc(-c4cccc(OC(F)(F)F)c4)n3n2)CC1` [8-45, 2-(dimethylamino)-1-(4-(((3-(3-(trifluoromethoxy)phenyl)imidazo[1,2-b]pyridazin-6-yl)amino)methyl)piperidin-1-yl)ethanone], the IC50 at Pim-1 kinase (setting [1]) was 0.016 µM. Take `C[C@]1(O)CC[C@H](Nc2ccc3ncc(-c4cccc(OC(F)(F)F)c4)n3n2)CC1` [8-9, 1-Methyl-4-((3-(3-(trifluoromethoxy)phenyl)imidazo[1,2-b]pyridazin-6-yl)amino)-trans-cyclohexanol]: 26 µM corresponded to half-maximal inhibition at hERG (IC50). At Pim-1 kinase, `FC1(F)CCC(CNc2ccc3ncc(-c4cccc(OC(F)(F)F)c4)n3n2)CC1` [8-17, N-((4,4-difluorocyclohexyl)methyl)-3-(3-(trifluoromethoxy)phenyl)imidazo[1,2-b]pyridazin-6-amine] gave an IC50 of 0.173 µM.

Take `O=C(CN1CCOCC1)N1CCC(CNc2ccc3ncc(-c4cccc(OC(F)(F)F)c4)n3n2)CC1` [8-21, 2-Morpholino-1-(4-(((3-(3-(trifluoromethoxy)phenyl)imidazo[1,2-b]pyridazin-6-yl)amino)methyl)piperidin-1-yl)ethanone]: the IC50 at Pim-1 kinase (setting [1]) turned out to be 0.046 µM.

Turning to `CC(C)(O)[C@H]1CC[C@H](Nc2ccn3ncc(-c4cccc(OC(F)(F)F)c4)c3n2)CC1` [8-47], the IC50 at Pim-1 kinase (setting [1]) came out at 0.204 µM. Turning to `CC(C)(O)[C@H]1CC[C@H](Nc2ccc3nnc(-c4cccc(C(F)(F)F)c4)n3c2)CC1` [8-109], the IC50 at Pim-1 kinase (setting [2]) is 3.87 µM. Regarding `CC(C)(O)[C@H]1CC[C@H](Nc2ccn3ncc(-c4cccc(Cl)c4)c3n2)CC1` [8-63], the IC50 on Pim-1 kinase (setting [1]) worked out at 0.023 µM. With `COCCOc1ccc2ncc(-c3cccc(OC(F)(F)F)c3)n2n1` [8-42, 6-(2-Methoxyethoxy)-3-(3-(trifluoromethoxy)phenyl)imidazo[1,2-b]pyridazine], at Pim-1 kinase (setting [1]), the IC50 was 1.97 µM.

Regarding `O[C@@H]1CC[C@@H](Nc2ccc3ncc(-c4cccc(OC(F)(F)F)c4)n3n2)C1` [8-5, (1R,3R)3-((3-(3-(Trifluoromethoxy)phenyl)imidazo[1,2-b]pyridazin-6-yl)amino)cyclopentanol], the IC50 at Pim-1 kinase (setting [1]) is 0.036 µM. `N[C@H]1CCCN(c2ccc3ncc(-c4cccc(OC(F)(F)F)c4)n3n2)C1` [8-25, (S)-1-(3-(3-(Trifluoromethoxy)phenyl)imidazo[1,2-b]pyridazin-6-yl)piperidin-3-amine]: the IC50 on Pim-1 kinase (setting [1]) is 0.03 µM.

Usually IC50 stands for the concentration at which inhibition is half-maximal.
